Values quoted from earlier work in patent US11883453B2, “Formulation based on medicinal plant, or part or extract thereof, use of the formulation and product including said formulation” (priority 2018, dated 2024).

Tests used:
3T3 fibroblast strains [1] = conditions: Scratch Assay, 3T3 fibroblasts, compared to Calendula extract
[2] = rate proportional to concentration
[3] = disk-diffusion
3T3 fibroblast strains [4] = conditions: MTT, 3T3 fibroblasts

Compound	Effect on in vitro healing (3T3 fibroblast strains [1])	Elimination of free radicals [2]	Antimicrobial activity (inhibition halos in agar) [3]	Cytotoxicity (3T3 fibroblast strains [4])
CCCCCCCCCCCCCCCC(=O)OC1CCC2(C)C(CCC3(C)C2CCC2C4C(C)C(C)=CCC4(C)C(O)CC23C)C1(C)C (centres unmarked) [faradiol palmitate]	partial role in the healing process compared to the extract			
CCCCCCCCCCCCCC(=O)OC1CCC2(C)C(CCC3(C)C2CCC2C4C(C)C(C)=CCC4(C)C(O)CC23C)C1(C)C (centres unmarked) [faradiol myristate]	partial role in the healing process compared to the extract			
C=C(C)[C@@H]1CC[C@]2(C)CC[C@]3(C)[C@H](CC[C@@H]4[C@@]5(C)CC[C@H](O)C(C)(C)[C@@H]5CC[C@]43C)[C@@H]12 [Lupeol]		excellent properties to eliminate free radicals	confirmed the antimicrobial activity	no toxicity found
